Test results: the NIST ThermoML archive (doi:10.1016/j.jct.2019.04.010)
± gives the expanded uncertainty stated by the source.

Tests used:
[1] = 100 kPa, Liquid; for viscosity: Concentric cylinders viscometry; for mass density: Vibrating tube method
[2] = xn = mol fraction of the nth substance listed; details: 100 kPa, Liquid, x2 = 0; for viscosity: Concentric cylinders viscometry; for mass density: Vibrating tube method

Compound	viscosity ([2]; 293.15 K)	mass density ([2]; 293.15 K)	viscosity ([2]; 298.15 K)	mass density ([2]; 298.15 K)	viscosity ([2]; 303.15 K)	mass density ([2]; 303.15 K)	viscosity ([2]; 308.15 K)	mass density ([2]; 308.15 K)	viscosity ([2]; 313.15 K)	mass density ([2]; 313.15 K)	viscosity ([2]; 318.15 K)	mass density ([2]; 318.15 K)	viscosity ([2]; 323.15 K)	mass density ([2]; 323.15 K)	also measured
CCCCn1cc[n+](C)c1.O=[N+]([O-])[O-] [1-butyl-3-methylimidazolium nitrate]	–	–	–	–	–	–	–	–	–	–	–	–	–	–	viscosity ([1]; 293.15 K): 223.54 ± 45 mPa·s; mass density ([1]; 293.15 K): 1158.3 ± 1.5 kg/m3; viscosity ([1]; 298.15 K): 168.97 ± 34 mPa·s; mass density ([1]; 298.15 K): 1155.2 ± 1.5 kg/m3; viscosity ([1]; 303.15 K): 125.36 ± 25 mPa·s; mass density ([1]; 303.15 K): 1152.3 ± 1.5 kg/m3; viscosity ([1]; 308.15 K): 96.74 ± 19 mPa·s; mass density ([1]; 308.15 K): 1149.3 ± 1.5 kg/m3; viscosity ([1]; 313.15 K): 75.12 ± 15 mPa·s; mass density ([1]; 313.15 K): 1146.5 ± 1.5 kg/m3; viscosity ([1]; 318.15 K): 56.28 ± 11 mPa·s; mass density ([1]; 318.15 K): 1143.8 ± 1.4 kg/m3; viscosity ([1]; 323.15 K): 45.17 ± 9.1 mPa·s; mass density ([1]; 323.15 K): 1141.2 ± 1.4 kg/m3
CC(C)O [propan-2-ol] + CCCCn1cc[n+](C)c1.O=[N+]([O-])[O-]	2.42 ± 0.48 mPa·s	785.4 ± 1 kg/m3	2.08 ± 0.42 mPa·s	781.1 ± 1 kg/m3	1.8 ± 0.36 mPa·s	776.8 ± 1 kg/m3	1.56 ± 0.31 mPa·s	772.4 ± 1 kg/m3	1.36 ± 0.27 mPa·s	768 ± 1 kg/m3	1.19 ± 0.24 mPa·s	763.4 ± 1 kg/m3	1.05 ± 0.21 mPa·s	758.8 ± 1 kg/m3	–
CCCC(C)O (stereo unspecified) [pentan-2-ol] + CCCCn1cc[n+](C)c1.O=[N+]([O-])[O-]	3.97 ± 0.79 mPa·s	809.3 ± 1 kg/m3	3.32 ± 0.66 mPa·s	805.3 ± 1 kg/m3	2.81 ± 0.56 mPa·s	801.2 ± 1 kg/m3	2.37 ± 0.47 mPa·s	797 ± 1 kg/m3	1.99 ± 0.4 mPa·s	792.7 ± 1 kg/m3	1.66 ± 0.33 mPa·s	788.4 ± 1 kg/m3	1.39 ± 0.28 mPa·s	784 ± 1 kg/m3	–
CCC(C)O (stereo unspecified) [butan-2-ol] + CCCCn1cc[n+](C)c1.O=[N+]([O-])[O-]	3.67 ± 0.73 mPa·s	806.7 ± 1 kg/m3	3.04 ± 0.61 mPa·s	802.7 ± 1 kg/m3	2.54 ± 0.51 mPa·s	798.4 ± 1 kg/m3	2.13 ± 0.43 mPa·s	794.1 ± 1 kg/m3	1.8 ± 0.36 mPa·s	789.8 ± 1 kg/m3	1.54 ± 0.31 mPa·s	785.2 ± 1 kg/m3	1.33 ± 0.27 mPa·s	780.6 ± 1 kg/m3	–
